Ends that are not written are not given here.
Molecular target: OPRM1 (Homo sapiens, UniProt P35372)
Experiment: OPRM1 GPCR cAMP modulation assay
Type: cell-based
Procedure: GPCR cAMP Modulation Assays: cAMP Hunter cell lines were grown, plated, and subjected to Eurofins’ DiscoverX HitHunter cAMP XS+ assay. Gs agonist activity, Gi agonist activity, and antagonist activity-induced assays were read using chemiluminescent signal detection. The percentage of activity was calculated for Gs and Gi agonist assays, and the percentage of inhibition was calculated for Gs antagonist assays. […]
cAMP Second ary Messenger Assay pound results in the release of calcium from intracellular stores and DiscoverX has developed a panel of cell lines stably expressing non- an increase in dye fluorescence that is measured in real-time. tagged GPCRs that endogenously signal through cAMP. […]
The enzyme is split into two complementary portions: Enzyme Ac-ceptor (EA) and Enzyme Donor (ED). […] Active enzyme can then convert a chemilumines-cent substrate, generating an output signal detectable on a standard The NHR is tagged with the ProLink™ (PK) component of our EFC microplate reader. assay system, and the SRCP domain is fused to the Enzyme Ac-ceptor component (EA) expressed in the nucleus. […]

Chain of OPRM1 (P35372 whole entry): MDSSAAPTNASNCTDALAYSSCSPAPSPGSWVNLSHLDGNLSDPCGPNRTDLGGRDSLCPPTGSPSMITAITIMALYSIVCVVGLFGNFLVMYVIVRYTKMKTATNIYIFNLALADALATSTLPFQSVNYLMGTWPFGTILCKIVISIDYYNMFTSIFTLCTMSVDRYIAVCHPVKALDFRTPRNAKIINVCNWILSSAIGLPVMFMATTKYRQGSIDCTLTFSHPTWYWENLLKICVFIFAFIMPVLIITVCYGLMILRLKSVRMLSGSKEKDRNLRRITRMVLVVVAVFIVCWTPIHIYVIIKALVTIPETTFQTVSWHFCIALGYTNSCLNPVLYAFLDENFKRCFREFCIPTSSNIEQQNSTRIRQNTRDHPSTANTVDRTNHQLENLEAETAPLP

Question: Which antagonist action does the source give for APWHLSSQYSRT [CTP] here?
Answer: The antagonist action was “no antagonist action”.
